The target in experiment [1] is T1, Recombinant human HDAC3/SMRT heterodimer (Homo sapiens, UniProt O15379).
T1 construct: FLAG (C); made in house
Kind of experiment: Human HDAC enzyme inhibitor Fluor-de-Lys assay, HDAC3/SMRT. In kind it is biochemical.

The target in experiment [2] is T2, Recombinant human HDAC2 (Homo sapiens, UniProt Q92769).
T2 construct: Full length human HDAC2-FLAG was expressed in baculovirus infected Sf9 cells; FLAG (C); made in house; host or cells: Sf9 (baculovirus)
In words: Human HDAC enzyme inhibitor Fluor-de-Lys assay, HDAC2. The class given is biochemical. The procedure: (§1) Human HDAC Enzyme Inhibitor Fluor-De-Lys Assay
(§2) Recombinant human HDAC8 (BML-SE145-0100) and HDAC10 (BML-SE559-0050) enzymes, HDAC substrates BML-KI104 and BML-KI178, and HDAC developer solutions BML-KI105 and BML-KI176 were purchased from Enzo Life Sciences. […] HDAC inhibitor suberoylanilide hydroxamic acid (SAHA) was obtained from Indofine and trichostatin A (TSA) was obtained from Sigma-Aldrich.
(§3) Recombinant human HDAC1, HDAC2, and HDAC3/SMRT heterodimer were prepared by Merck Research Laboratories. […] The eluted protein was then passed over an anti-HDAC1 immunoaffinity column to remove any complexes containing HDAC1. […]
(§4) The histone deacetylase activities of HDAC1, HDAC2, HDAC3, HDAC6, and HDAC8 were measured in modified FLUOR DE LYS assays in 384-well format. In this assay, HDAC enzymes are initially incubated with an ε-acetyl (or -trifluoroacetyl)-L-lysine-containing substrate with a C-terminal amide having aminomethylcoumarin as the amine component. HDACs cleave the ε-acetyl group, rendering the resulting product susceptible to AMC cleavage by trypsin. The released AMC is then detected by its fluorescence.
(§5) The HDAC3/SMRT assay employed buffer B, consisting of 20 mM HEPES, pH 8.0, 1 mM MgCl2, 50 mM NaCl, 2.7 mM KCl, 0.05% BSA, 0.005% Tween 20, and 10 μM IP4. […] The HDAC8 assay employed buffer D, consisting of 20 mM HEPES, pH 8.0, 1 mM MgCl2, 100 mM NaCl, 20 mM KCl, 0.10% n-octyl-β-D-glucoside (Anatrace) and 0.05% BSA. All steps were performed at room temperature (23° C.). The assay was performed by pre-incubating serial dilutions of test compounds with the target HDAC prior to initiation with substrate. Each compound was titrated in a 10-point dose response, using a 1:3 fold dilution scheme, with 0.15 ul of solution added by ECH0555 to the plate, followed by the addition of 20 μl of the appropriate HDAC isoform diluted in appropriate assay buffer. […] Final conditions used for each assay were: 1. HDAC 1, 0.3 nM total enzyme, 20 μM substrate BML-KI104; 2. […] HDAC 3/SMRT, 0.3 nM total enzyme, 20 μM substrate BML-KI104; 4. […] The reactions were stopped and developed by addition of 30 ul of HDAC developer solution containing a saturating level of HDAC inhibitor as follows: 1.

The test system of experiment [3] is KARN cells (Jurkat 2C4). In words: cells. The class given is cell-based. A digest of the protocol: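 Jurkat 2C4 (KARN) cells dosed with test compounds up to 40 μM final, 0.4% DMSO, overnight at 5% CO2; luciferase read by Steady-Glo luminescence after 10 min at room temperature. DMSO set as 0% and 2 μM SAHA as 100% induction; 4-parameter fit of percent activation.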

Experiment [4] addresses T3, Recombinant human HDAC1 (Homo sapiens, UniProt Q13547).
T3 construct: FLAG (C); made in house
Kind of experiment: Human HDAC enzyme inhibitor Fluor-de-Lys assay, HDAC1. In kind it is biochemical. The method, then: as §1, §2, §3, §4, §5

Setting [5] is: Homo sapiens, Jurkat, read-out: Karn EC50 (nM) 0.1% NHS, 0.1% normal human serum.
The mark [6] stands for this setting: Homo sapiens, Jurkat, read-out: Karn EC50 (nM) 5% NHS, 5% normal human serum.
[7] abbreviates: read-out: Karn EC50 (nM) 0.1% NHS, 0.1% normal human serum.
[8] abbreviates: read-out: Karn EC50 (nM) 5% NHS, 5% normal human serum.

Our source for the IC50 and EC50 values is patent US12590099B2, “Inhibitors of histone deacetylase useful for the treatment or prevention of HIV infection” (Merck Sharp & Dohme LLC, priority 2018, dated 2026).

pIC50: −log10 of the molar value. Like-named read-outs stand apart in the source and are kept apart here.

T2 sequence (Q92769 whole entry): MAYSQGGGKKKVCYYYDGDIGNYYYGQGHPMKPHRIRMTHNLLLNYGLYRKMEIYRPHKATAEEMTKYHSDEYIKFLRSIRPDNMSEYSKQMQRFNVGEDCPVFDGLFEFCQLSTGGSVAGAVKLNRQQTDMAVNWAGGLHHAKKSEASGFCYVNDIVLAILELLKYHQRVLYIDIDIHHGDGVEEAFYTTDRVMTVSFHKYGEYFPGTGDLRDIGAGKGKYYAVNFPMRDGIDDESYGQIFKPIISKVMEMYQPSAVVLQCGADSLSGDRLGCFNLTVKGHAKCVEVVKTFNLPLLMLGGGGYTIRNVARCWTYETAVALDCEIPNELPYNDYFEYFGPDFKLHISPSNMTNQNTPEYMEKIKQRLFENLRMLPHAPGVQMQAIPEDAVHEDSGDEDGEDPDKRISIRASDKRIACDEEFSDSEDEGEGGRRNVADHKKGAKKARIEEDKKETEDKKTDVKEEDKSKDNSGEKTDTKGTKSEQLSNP
T3 sequence (Q13547 whole entry): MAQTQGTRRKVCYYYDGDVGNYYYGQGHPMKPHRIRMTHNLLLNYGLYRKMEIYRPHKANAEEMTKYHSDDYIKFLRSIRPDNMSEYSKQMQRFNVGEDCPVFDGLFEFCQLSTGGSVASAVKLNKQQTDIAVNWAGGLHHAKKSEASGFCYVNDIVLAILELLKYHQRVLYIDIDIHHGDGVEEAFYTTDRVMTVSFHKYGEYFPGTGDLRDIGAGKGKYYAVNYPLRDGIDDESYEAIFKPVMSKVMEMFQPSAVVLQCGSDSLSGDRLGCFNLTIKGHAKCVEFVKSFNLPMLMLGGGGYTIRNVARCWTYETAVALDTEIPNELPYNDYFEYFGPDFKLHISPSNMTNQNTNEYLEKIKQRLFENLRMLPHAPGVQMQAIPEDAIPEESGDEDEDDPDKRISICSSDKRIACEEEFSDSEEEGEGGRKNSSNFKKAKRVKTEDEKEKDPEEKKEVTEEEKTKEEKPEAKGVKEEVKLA
T1 sequence (O15379 whole entry): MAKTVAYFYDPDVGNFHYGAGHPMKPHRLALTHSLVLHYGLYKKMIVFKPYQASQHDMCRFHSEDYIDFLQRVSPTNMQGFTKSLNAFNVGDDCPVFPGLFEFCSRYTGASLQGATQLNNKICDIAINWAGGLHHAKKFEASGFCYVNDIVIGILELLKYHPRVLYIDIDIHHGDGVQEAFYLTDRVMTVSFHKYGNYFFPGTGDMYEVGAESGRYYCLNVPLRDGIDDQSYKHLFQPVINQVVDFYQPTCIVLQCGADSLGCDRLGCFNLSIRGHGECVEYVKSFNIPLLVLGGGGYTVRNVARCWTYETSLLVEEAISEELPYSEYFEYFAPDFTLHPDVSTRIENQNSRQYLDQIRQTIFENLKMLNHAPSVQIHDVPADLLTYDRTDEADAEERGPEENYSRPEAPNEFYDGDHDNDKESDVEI
T1 sequence (Q9Y618 1-899 partner limits assumed): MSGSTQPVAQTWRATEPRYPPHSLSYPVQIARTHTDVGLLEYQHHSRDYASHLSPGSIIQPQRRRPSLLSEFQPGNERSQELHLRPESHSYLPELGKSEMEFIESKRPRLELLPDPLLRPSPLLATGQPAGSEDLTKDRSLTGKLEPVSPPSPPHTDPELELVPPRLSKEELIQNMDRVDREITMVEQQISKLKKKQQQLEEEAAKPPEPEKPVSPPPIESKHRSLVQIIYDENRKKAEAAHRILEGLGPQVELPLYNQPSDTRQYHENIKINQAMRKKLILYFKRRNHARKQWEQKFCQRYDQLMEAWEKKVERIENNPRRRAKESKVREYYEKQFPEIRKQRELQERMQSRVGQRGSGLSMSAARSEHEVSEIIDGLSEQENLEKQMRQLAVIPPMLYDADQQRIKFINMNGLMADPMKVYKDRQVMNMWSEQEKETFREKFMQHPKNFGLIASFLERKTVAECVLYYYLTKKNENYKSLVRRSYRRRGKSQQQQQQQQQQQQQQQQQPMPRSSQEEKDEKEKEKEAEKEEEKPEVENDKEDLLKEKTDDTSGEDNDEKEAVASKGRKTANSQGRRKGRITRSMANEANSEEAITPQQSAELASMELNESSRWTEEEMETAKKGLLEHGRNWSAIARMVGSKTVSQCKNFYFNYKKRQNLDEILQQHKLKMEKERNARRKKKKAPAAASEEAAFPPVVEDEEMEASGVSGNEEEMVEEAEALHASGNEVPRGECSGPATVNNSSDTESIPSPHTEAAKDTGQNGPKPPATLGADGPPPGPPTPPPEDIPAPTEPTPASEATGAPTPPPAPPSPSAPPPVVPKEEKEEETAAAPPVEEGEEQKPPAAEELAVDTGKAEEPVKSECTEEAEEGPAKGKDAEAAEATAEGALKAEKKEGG

In the case of `CCC(=O)CCCCC[C@H](NCCN(C)C)c1ncc(-c2cc3ccc(C)nc3cc2OC)[nH]1` [Compound 217, (9S)-9-{[2-(dimethylamino)ethyl]amino}-9-[5-(7-methoxy-2-methylquinolin-6-yl)-1H-imidazol-2-yl]nonan-3-one], the negative-log IC50 (pIC50) (as a rule, the IC50 on a negative log10 scale, so that one unit is a factor of ten) in experiment [1] was 7.96; in experiment [2] it was 7.30; in experiment [4], 8.34. For the same compound, the EC50 (commonly the concentration needed to bring the measured effect to its halfway point) in experiment [3] (setting [5]) came to 576 nM; in experiment [3] (setting [6]) it was 518 nM.
With `CCC(=O)CCCCC[C@H](NC(=O)[C@H]1CC12CCN(CC)CC2)c1ncc(-c2ccc3c(cnn3C3CC3)c2)[nH]1` [Compound 159], the pIC50 in experiment [1] was 9.31; in experiment [2] it was 8.62; in experiment [4], 9.36. Besides, the EC50 is 73 nM in experiment [3] (setting [5]) and 57 nM in experiment [3] (setting [6]).
`CCC(=O)CCCCC[C@H](NC(=O)C1CC12CCN(C)C(C)(C)C2)c1ncc(-c2ccc3nc(C)ccc3c2)[nH]1` (single isomer, unassigned) [Compound 130]: the pIC50 in experiment [1] was 8.64; in experiment [2] it was 7.82; in experiment [4], 8.25. Besides, the EC50 in experiment [3] (setting [7]) came to 503 nM; in experiment [3] (setting [8]) it was 598 nM.
For the compound `CCC(=O)CCCCC[C@H](NC(=O)C1=NOC2(CCN(C)CC2)C1)c1ncc(-c2ccc3nc(C4CC4)ccc3c2)o1` [Compound 135], the pIC50 in experiment [1] was 7.96; in experiment [2], 7.36; in experiment [4] it was 7.83. The EC50 in experiment [3] (setting [5]) came to 1120 nM; in experiment [3] (setting [6]), 1380 nM.
Taken in the same sequence, the figures for `CCC(=O)CCCCC[C@H](NC(=O)[C@H]1CC12CCN(C)CC2)c1ncc(-c2ccc3oc(=O)ccc3c2)[nH]1` [Compound 138] were 8.79, 8.10, 8.88, 210 nM and 223 nM.
Taken in the same sequence, the figures for `CCC(=O)CCCCC[C@H](NC(=O)C1=NOC2(CCN(CC)CC2)C1)c1ncc(-c2cc3ccc(C)nc3cc2OC)o1` [Compound 204] were 9.15, 8.41, 9.47, 165 nM and 152 nM.
Regarding `CCC(=O)CCCCC[C@H](NC(=O)[C@H]1CC12CCN(CC1CC1)CC2)c1ncc(-c2ccc3nc(C4CC4)ccc3c2)o1` [Compound 115], the pIC50 is greater than 8.82 in experiment [1], 8.70 in experiment [2] and greater than 8.82 in experiment [4]. For the same compound, the EC50 in experiment [3] (setting [5]) was 239 nM; in experiment [3] (setting [6]), 209 nM.
In the case of `CCC(=O)CCCCC[C@H](NC(=O)[C@H]1CC12CCN(C)CC2)c1[nH]c(-c2ccc(F)cc2)nc1C#N` [Compound 76], the figures for the pIC50 in experiment [1], in experiment [2] and in experiment [4] were 8.54, 7.71 and 8.41, respectively. Also, the EC50 turned out to be 233 nM in experiment [3] (setting [5]) and 409 nM in experiment [3] (setting [6]).
For `CCC(=O)CCCCC[C@H](NC(=O)C1CN(C)C1)c1[nH]c(-c2ccc(F)cc2)nc1Br` [Compound 65, N-{(1S)-1-[4-bromo-2-(4-fluorophenyl)-1H-imidazol-5-yl]-7-oxononyl}-1-methylazetidine-3-carboxamide], the pIC50 in experiment [1] was 7.69; in experiment [2] it was 6.51; in experiment [4] it was 7.35. The EC50 in experiment [3] (setting [5]) came out at 2190 nM; in experiment [3] (setting [6]), 4390 nM.
The corresponding values for `CCC(=O)CCCCC[C@H](NC(=O)[C@@]1(C)CC12CCN(C(C)C)CC2)c1ncc(-c2ccc3nc(C)ccc3c2)[nH]1` (single isomer, unassigned) [Compound 151, (1S or 1R)-1-methyl-6-(1-methylethyl)-N-{(1S)-1-[5-(2-methylquinolin-6-yl)-1H-imidazol-2-yl]-7-oxononyl}-6-azaspiro[2.5]octane-1-carboxamide] are 8.40, 7.66, 8.24, 583 nM and 864 nM.
The corresponding values for `CCC(=O)CCCCC[C@H](NC(=O)[C@H]1CC12CCN(C)CC2)c1ncc(-c2ccc3ncc(Cl)cc3c2)[nH]1` [Compound 140] are 9.02, 8.35, 9.01, 113 nM and 155 nM.
Consider `CCC(=O)CCCCC[C@H](NC(=O)[C@H]1CC12CCN(CC)CC2)c1ncc(-c2ccc3c(=O)n(C(C)C)ccc3c2)[nH]1` [Compound 126], for which the values for the pIC50 in experiment [1], in experiment [2] and in experiment [4] were 9.72, 8.89 and 9.72, respectively. The results for the EC50 in experiment [3] (setting [5]) and in experiment [3] (setting [6]) were 53 nM and 33 nM, respectively.
As for `CCC(=O)CCCCC[C@H](NC(=O)C1CC12CCN(C)C(C)(C)C2)c1ncc(-c2ccc3nc(C)ccc3c2)[nH]1` (single isomer, unassigned) [Compound 133], the values for the pIC50 in experiment [1], in experiment [2] and in experiment [4] were greater than 8.82, 8.68 and greater than 8.82, respectively. Also, the EC50 in experiment [3] (setting [7]) came to 89 nM; in experiment [3] (setting [8]) it was 81 nM.
Take `CCC(=O)CCCCC[C@H](N)c1ncc(-c2ccc3nc(C)ccc3c2)[nH]1` [Compound 178]: the pIC50 in experiment [1] is 7.26; in experiment [2], 6.41; in experiment [4] it was 6.97. Moreover, the EC50 worked out at 6790 nM in experiment [3] (setting [5]) and 10400 nM in experiment [3] (setting [6]).
In the case of `CN1CCC2(CC1)C[C@@H]2C(=O)N[C@@H](CCCCCC(=O)CC(F)(F)F)c1ncc(-c2ccc(F)cc2)[nH]1` [Compound 68], the pIC50 in experiment [1] is 8.07; in experiment [2], 6.90; in experiment [4], 8.06. In addition, the EC50 in experiment [3] (setting [5]) was greater than 40000 nM.
Consider `CCC(=O)CCCCC[C@H](NC(=O)C1(C)CC12CCN(C(C)C)CC2)c1ncc(-c2ccc3nc(C)ccc3c2)[nH]1` (single isomer, unassigned) [Compound 152, (1S or 1R)-1-methyl-6-(1-methylethyl)-N-{(1S)-1-[5-(2-methylquinolin-6-yl)-1H-imidazol-2-yl]-7-oxononyl}-6-azaspiro[2.5]octane-1-carboxamide], for which the pIC50 is 9.07 in experiment [1], 8.40 in experiment [2] and 9.03 in experiment [4]. Besides, the values for the EC50 in experiment [3] (setting [5]) and in experiment [3] (setting [6]) were 128 nM and 96 nM, respectively.
Taken in the same sequence, the figures for `CCC(=O)CCCCC[C@H](NC(=O)[C@H]1CC12CCN(C)CC2)c1ncc(-c2ccc3c(ccc(=O)n3C)c2)o1` [Compound 109] were 8.53, 8.03, 8.45, 706 nM and 579 nM.
Take `CCN1CCC2(CC1)C[C@@H]2C(=O)N[C@@H](CCCCCC(=O)CC1CC1)c1ncc(-c2ccc(F)cc2)[nH]1` [Compound 201]: the pIC50 in experiment [1] was 8.09; in experiment [2], 7.49; in experiment [4], 8.14. Further, the EC50 in experiment [3] (setting [5]) worked out at 359 nM; in experiment [3] (setting [6]) it was 403 nM.
Take `CCC(=O)CCCCC[C@H](NC(=O)[C@H]1CC12CCN(CC)CC2)c1ncc(-c2ccc3c(=O)n(CC)ccc3c2)o1` [Compound 162]: the pIC50 is 8.55 in experiment [1], 8.02 in experiment [2] and 8.49 in experiment [4]. Also, the EC50 in experiment [3] (setting [5]) was 257 nM; in experiment [3] (setting [6]) it was 305 nM.
Consider `COc1cc2nc(C)ccc2cc1-c1cnc([C@H](CCCCCC(=O)CC2CCC2)NC(=O)[C@H]2CC23CCN(C)CC3)o1` [Compound 185], for which the values for the pIC50 in experiment [1], in experiment [2] and in experiment [4] were 7.59, 7.42 and 7.82, respectively. In addition, the EC50 in experiment [3] (setting [5]) turned out to be 1330 nM; in experiment [3] (setting [6]), 2960 nM.
Taken in the same sequence, the figures for `CCC(=O)CCCCC[C@H](NC(=O)[C@H]1CC12CCN(CC)CC2)c1ncc(-c2ccc3nc(C4CC4)ccc3c2)[nH]1` [Compound 101] were greater than 8.82, greater than 8.82, greater than 8.82, 41 nM and 36 nM.
